# Assay results taken from patent US20230035479A1, “METHODS AND COMPOSITIONS FOR REDUCING HAIR GREYING” (President and Fellows of Harvard College, priority 2019, published 2023).
# Where two headings read alike, the source gives them in different places.
# Key:
# C57BL/6J mice = assay type: in vivo, mouse
# mature melanocytes = experiment: Differentiated/mature melanocytes and hair bulb cells, immunofluorescence; assay type: in vivo, mouse; conditions: full anagen; for proliferation of cells in the hair bulb: RTX-injected animals, topical CDK inhibitors
# Protocol: Loss of hair pigmentation can be due to defects in melanin synthesis, loss of differentiated melanocytes, or problems in MeSC maintenance. To understand how stress impacts the melanocyte lineage, RTX was injected into mice in anagen, when both MeSCs and differentiated melanocytes were present but located within distinct compartments—MeSCs were near to the bulge while differentiated melanocytes were at the hair bulb (FIG. 1E). […] These differentiated melanocytes continued to generate pigments, and the hair coat remained black (FIGS. 6F-6G). When hair follicles in the RTX-injected animals entered catagen and telogen, many have lost all MeSCs (FIG. 1E, Telo). Subsequently, when the next round of anagen initiated, differentiated melanocytes were not produced to color new hair shafts, and unpigmented hairs emerged (FIG. 1E, 2nd Ana, FIG. 6H). […] In this case, unpigmented hairs appeared as soon as new hairs emerged in the following anagen (FIGS. 7A-7B). […] MeSCs were also lost or reduced in mice subjected to restraint stress or chronic unpredictable stress (FIG. 7C). Since stress depleted MeSCs, the loss of hair pigmentation in all three conditions was permanent (FIG. 7D).
# Quiescence is a key feature of many somatic stem cells. Loss of quiescence has been postulated to cause MeSC loss in Bcl2 mutants. To examine if stress alters MeSCs quiescence, RTX or norepinephrine was injected into mice that had entered full anagen, when MeSCs are normally quiescent. A dramatic increase in the number of proliferating MeSCs was seen within 24 hours after RTX or norepinephrine injection—about 50% of MeSCs became positive for Phospho-Histone H3, an M phase marker (FIG. 4B). This number is in sharp contrast to the MeSC proliferation seen in early anagen (˜6%), the only stage when MeSCs proliferate to self-renew (FIG. 11E).
# (§1) Mouse skin samples were fixed using 4% paraformaldehyde (PFA) for 15 minutes at room temperature, washed 6 times with PBS, and immersed in 30% sucrose overnight at 4° C. Samples were then embedded in OCT (Sakura Finetek). 35˜50 μm sections were fixed in 4% paraformaldehyde (PFA) for 2 minutes and washed with PBS and PBST. Slides were then blocked using blocking buffer (5% donkey serum; 1% BSA, 2% cold water fish gelatin in 0.3% Triton in PBS) for 1 hour at room temperature, followed by staining with primary antibodies overnight at 4° C. and secondary antibody for 4 hours at room temperature. For sympathetic nerve density quantification, 90 μm sections were used. EdU was developed for 1 hour using the Click-It reaction according to manufacturer instructions (Thermo Fisher Scientific). TUNEL assay was performed according to manufacturer instructions (Roche). Fontana—Masson staining was performed according to manufacturer instructions (Market Lab ML7255). Antibodies used: TRP2 (Santa Cruz 10451, 1:800), tyrosine hydroxylase (rabbit, Millipore AB152, 1:1000 or sheep, Millipore AB1542, 1:150-1:300), c-Fos (Abcam, 190289, 1:1000), γ-H2AX (Cell Signaling, 9718, 1:400), phospho-histone H3 (rabbit, Cell Signaling Technology 3377S, 1:500), cleaved caspase 3 (rabbit, Cell Signaling Technology 9664S, 1:400), GFP (rabbit, Abcam ab290, 1:1000 or chicken, Ayes labs GFP-1010, 1:200), CD3 (eBioscience 14-0032-81, 1:800), CD11b (eBioscience 14-0112-81, 1:800), Phospho-CREB (Cell Signaling 9198, 1:800), MITF (Abcam ab12039, 1:400).
# [1] = tested on: melanocyte stem cells (MeSCs); experiment: MeSC proliferation, Phospho-Histone H3 immunofluorescence; conditions: for MeSC quiescence in RTX-injected animals: topical 5 mg/kg, until 48 hours post RTX injection
# Protocol: For RTX injection, mice received injections of RTX (30-100 μg/kg) in the flank for 1-3 days as described previously [15, 16, 51-56]. […] Control mice were treated with the vehicle only. RTX injection was done either in full anagen (P31-P36) or in 1st telogen (P21). […] RTX was given at Anagen VI (P31˜P36).
# All images were acquired using a Zeiss LSM 880 confocal microscope or Keyence microscope using ×20 or ×40 magnification lenses. Images are presented as Maximum Intensity Projection images. For colocalization analysis, images are presented as a single Z stack.
# [2] = tested on: melanocyte stem cells (MeSCs); experiment: MeSC numbers in hair follicles, TRP2 immunofluorescence or membrane GFP tracing; conditions: for MeSC preservation in RTX-injected animals: topical 5 mg/kg, until 48 hours post RTX injection, full anagen
# Protocol: For RTX injection, mice received injections of RTX (30-100 μg/kg) in the flank for 1-3 days as described previously [15, 16, 51-56]. […] Control mice were treated with the vehicle only. RTX injection was done either in full anagen (P31-P36) or in 1st telogen (P21). […] Mice were treated for three days (P28-P30). […] RTX was given at Anagen VI (P31˜P36).
# human hair follicles = experiment: Cultured human hair follicles, pigmented bulge or outer root sheath cells; assay type: cell-based; conditions: 24 hours
# Protocol: (§2) FIG. 14C provides quantification of the proportion of follicles that contain pigmented bulge or outer root sheath cells vs those lacking such pigmented cells outside of the bulb region. Human discarded hair bearing skin was cultured for 3 days with single hairs being isolated and grown in semi solid agarose William E medium with vehicle or norepinephrine (0.1 mM) for 24 hours. The cells were assessed after culture to identify those that were pigmented from those that were not. The presence of pigmented cells indicates senescence of melanocyte stem cells. Signal in vehicle control likely reflects the middle-age of the donor follicles.
# Hair follicles from discarded scalp skin of […] was cultured for 3 days. Single hairs were isolated and grown in a semi agarose William E medium with vehicle, norepinephrine (NE) (0.1 mM), or NE (0.1 mM) +butoxamine (0.1 mM) (β2 blocker) for 24 hours. The graph indicates the proportion of follicles containing (or lacking) pigmented melanocytes (see arrows) in the bulge or outer root sheath locations, indicating melanocyte stem cell differentiation/senescence.
# [3] = tested on: melanocyte stem cells (MeSCs); experiment: Corticosterone feeding in drinking water; conditions: corticosterone elevated via feeding, 35 μg/ml in drinking water, three days
# Protocol: Since all stressors led to elevated corticosterone and norepinephrine in the blood, it was considered if these stress-induced circulating factors played a role in stress-induced MeSC loss.
# Control mice were treated with the vehicle only. […] Mice were treated for three days (P28-P30).
# [4] = tested on: melanocyte stem cells (MeSCs); experiment: Apoptosis (active caspase-3, TUNEL) and DNA damage (gamma-H2AX) in MeSCs; assay type: in vivo, mouse
# Protocol: Radiation causes DNA damage in MeSCs, leading to their differentiation within the niche.
# as §1
# [5] = tested on: primary human melanocytes; experiment: qRT-PCR in cultured primary human melanocytes treated with norepinephrine; assay type: cell-based
# Protocol: (§3) Primary human melanocytes were derived from neonatal foreskin as previously described and cultured in Medium 254 (Invitrogen, Thermo Fisher Scientific). Melanocytes (passages 2 and 4) were starved for 24 hours in HAM's F-10 +1% penicillin/streptomycin/glutamine before adding NE (10 uM).
# The cDNA libraries were synthesized using Superscript IV VILO master mix with ezDNase (Thermo Fisher). Quantitative real time PCR was performed using power SYBR green (Thermo Fisher) in an ABI QuantStudio6 Flex qPCR instrument. Ct values were normalized to an internal control of beta-actin.
# CREB/ATF1 = CREB/ATF1 phosphorylation in human primary melanocytes; assay type: cell-based; conditions: 10 uM, after 15 minutes
# Protocol: as §2, §3
# ADRB2 on MeSCs = ADRB2 on MeSCs (Mus musculus, UniProt P18762); experiment: Hair greying after intradermal norepinephrine injection
# Sequence of ADRB2 on MeSCs (P18762 whole entry): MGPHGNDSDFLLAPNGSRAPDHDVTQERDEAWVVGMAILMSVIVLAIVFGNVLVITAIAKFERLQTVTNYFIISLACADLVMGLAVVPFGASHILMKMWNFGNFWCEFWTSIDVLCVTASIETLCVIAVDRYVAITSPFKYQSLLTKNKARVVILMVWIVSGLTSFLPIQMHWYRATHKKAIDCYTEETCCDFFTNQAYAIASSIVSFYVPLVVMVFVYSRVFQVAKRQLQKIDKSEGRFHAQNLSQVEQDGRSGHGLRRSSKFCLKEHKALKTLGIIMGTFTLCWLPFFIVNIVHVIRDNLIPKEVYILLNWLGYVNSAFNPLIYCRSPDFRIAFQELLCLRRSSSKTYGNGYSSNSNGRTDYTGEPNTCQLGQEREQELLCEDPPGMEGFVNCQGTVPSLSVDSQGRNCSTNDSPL
# Protocol: To test if elevated norepinephrine was sufficient to cause hair greying in the absence of stress, norepinephrine was introduced locally to the skin via intradermal injections.
# For tamoxifen treatment, tamoxifen was diluted in corn oil to a final concentration of 20 mg/ml. To induce recombination, 20 mg/kg was injected intraperitoneally once per day for 4-7 days. […] 50 μm was injected intradermally into experimental animals together with fluorescent beads at full anagen (P31˜P36). Control animals were injected with equivalent volume of vehicle (0.1% ascorbic acid in 0.9% sterile NaCl) with fluorescent beads. The injection sites were marked using water resistant ink.
# (§4) For intradermal injection experiments (NE or CNO), unpigmented hairs were quantified by plucking ˜100 hairs from each injection site (marked by water resistant ink at the time of injection), and the percentage of white hairs were calculated by dividing the number of white hairs by the total number of hairs plucked.
# sympathetic neurons = experiment: c-FOS immunofluorescence in sympathetic ganglia; assay type: in vivo, mouse; conditions: TH-CreER; Gq-DREADD mice injected with CNO
# Gq-DREADD = Gq-DREADD (Homo sapiens, UniProt P20309, A239G/Y149C); experiment: Sympathetic nerve activation with Gq-DREADD by intradermal CNO
# Sequence of Gq-DREADD (P20309 whole entry Y149C/A239G): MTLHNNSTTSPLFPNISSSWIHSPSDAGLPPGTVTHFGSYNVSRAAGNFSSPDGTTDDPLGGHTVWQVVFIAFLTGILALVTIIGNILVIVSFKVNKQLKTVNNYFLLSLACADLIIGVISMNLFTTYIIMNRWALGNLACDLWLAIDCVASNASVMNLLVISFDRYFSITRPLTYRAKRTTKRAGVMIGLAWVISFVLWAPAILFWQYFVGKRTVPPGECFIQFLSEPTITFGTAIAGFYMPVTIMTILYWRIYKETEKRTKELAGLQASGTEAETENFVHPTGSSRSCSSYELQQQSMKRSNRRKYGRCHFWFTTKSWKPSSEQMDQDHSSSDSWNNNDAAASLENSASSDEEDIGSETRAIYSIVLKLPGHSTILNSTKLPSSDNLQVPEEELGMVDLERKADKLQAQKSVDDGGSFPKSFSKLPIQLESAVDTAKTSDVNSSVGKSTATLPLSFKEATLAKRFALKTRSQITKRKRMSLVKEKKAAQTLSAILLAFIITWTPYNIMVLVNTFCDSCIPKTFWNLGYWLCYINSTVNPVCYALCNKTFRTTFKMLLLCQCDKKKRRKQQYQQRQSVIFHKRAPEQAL
# Description: To determine if sympathetic nerve activation in the absence of stress is sufficient to drive MeSC loss, a chemogenetic approach was taken using the Designer Receptor Exclusively Activated by Designer Drugs (DREADDs) system [3, 4]. Gq-DREADD is an artificial Gq-protein coupled receptor activated by the inert molecule Clozapine N-Oxide (CNO) but not by endogenous ligands. Activation of Gq-DREADD leads to intracellular calcium release and neuronal firing. TH-CreER; CAG-lsl-Gq-DREADD; Rosa-mT/mG mice were generated, which allowed for artificial activation of sympathetic nerves with CNO (FIG. 3D).
# Control mice were treated with the vehicle only. […] For tamoxifen treatment, tamoxifen was diluted in corn oil to a final concentration of 20 mg/ml. To induce recombination, 20 mg/kg was injected intraperitoneally once per day for 4-7 days. For mosaic induction of Tyr-CreER and TH-CreER, 20 mg/kg tamoxifen was injected intraperitoneally once per day for 3 days. […] Control animals were injected with equivalent volume of vehicle (0.1% ascorbic acid in 0.9% sterile NaCl) with fluorescent beads. The injection sites were marked using water resistant ink. […] For Induction of Gq-DREADD, 50 μl CNO (1 mg/ml in 0.9% sterile saline) was injected intradermally into experimental animals together with fluorescent beads at full anagen (P31˜P36). Control animals were injected with equivalent volume of vehicle (0.9% sterile saline) together with fluorescent beads.
# as §4
# [6] = topical 5 mg/kg in ethanol, 48 h before to 48 h after RTX
# [7] = sympathetic nerve ablation, 100 mg/kg intraperitoneally daily P18 to P22
smiles,measurement,setting,value
CN1CC[C@H](c2c(O)cc(O)c3c(=O)cc(-c4ccccc4Cl)oc23)[C@H](O)C1 [Flavopiridol],effect on RTX-induced hair greying,C57BL/6J mice; [6],inhibits RTX-induced hair greying
same,proliferation of cells in the hair bulb,mature melanocytes,remained largely normal
same,MeSC quiescence in RTX-injected animals,[1],remained quiescent
same,MeSC preservation in RTX-injected animals,[2],preserved in the niche
COc1ccc(OC)c(C(O)C(C)NC(C)(C)C)c1 (centres unmarked) [butoxamine],effect on norepinephrine-induced melanocyte pigmentation/senescence,"human hair follicles; NE 0.1 mM + butoxamine 0.1 mM, follicles of person",prevents norepinephrine-induced melanocyte pigmentation/senescence
C[C@]12C[C@H](O)[C@H]3[C@@H](CCC4=CC(=O)CC[C@@]43C)[C@@H]1CC[C@@H]2C(=O)CO [corticosterone],changes in MeSCs,[3],no changes in MeSCs or hair pigmentation
same,changes in hair pigmentation,[3],no changes in MeSCs or hair pigmentation
"O=C(NC1CCNCC1)c1n[nH]cc1NC(=O)c1c(Cl)cccc1Cl [AT7519, N-(4-Piperidinyl)-4-(2,6-dichlorobenzoylamino)-1H-pyrazole-3-carboxamide]",effect on RTX-induced hair greying,C57BL/6J mice; [6],inhibits RTX-induced hair greying
same,proliferation of cells in the hair bulb,mature melanocytes,remained largely normal
same,MeSC quiescence in RTX-injected animals,[1],remained quiescent
same,MeSC preservation in RTX-injected animals,[2],preserved in the niche
NC[C@H](O)c1ccc(O)c(O)c1 [norepinephrine],active caspase-3 or TUNEL signals in MeSCs,"[4]; before MeSC depletion from the niche, 1 day after injection",failed to detect active caspase-3 or TUNEL signals
same,gamma-H2AX foci (DNA damage) in MeSCs,[4]; following injection,failure to detect gamma-H2AX foci
same,proliferation or apoptosis in mature melanocytes,mature melanocytes; after injection,no changes in proliferation or apoptosis
same,expression of proliferation and differentiation genes,"[5]; cultured human melanocyte cells, NE 10 uM","rapid induction of proliferation genes like Cdk2, and differentiation genes like Mitf and Tyr"
same,expression of MITF and MITF target genes,[5]; cultured primary human melanocytes,induces MITF and multiple MITF target genes
same,phosphorylation/activation of CREB/ATF1,CREB/ATF1,induces transient phosphorylation/activation of CREB/ATF1
same,melanocyte stem cell pigmentation in human hair follicles,human hair follicles; norepinephrine 0.1 mM,heavy norepinephrine-induced melanocyte stem cell pigmentation
same,hair greying at injection sites,ADRB2 on MeSCs; HFSC-specific adrb2 knockout mice,promoted hair greying at the injection sites
same,hair greying at injection sites,ADRB2 on MeSCs; MeSC-specific adrb2 knockout mice,failed to cause hair greying
same,hair greying at injection sites,"ADRB2 on MeSCs; wild type mice, absence of stress",promoted hair greying at the injection sites
same,MeSCs positive for Phospho-Histone H3,"[1]; within 24 hours after injection, full anagen",about 50%
"C[N+]1([O-])CCN(C2=Nc3cc(Cl)ccc3Nc3ccccc32)CC1 [CNO, Clozapine N-Oxide]",c-FOS activation in sympathetic ganglia,sympathetic neurons,induced c-FOS activation in sympathetic ganglia
same,hair greying at CNO injection sites,"Gq-DREADD; TH-CreER, Gq-DREADD mice",led to loss of MeSCs and hair greying at the sites where CNO was injected
same,loss of MeSCs at CNO injection sites,"Gq-DREADD; TH-CreER, Gq-DREADD mice",led to loss of MeSCs
same,MeSC loss with mosaic TH-CreER activation,Gq-DREADD; low dose of tamoxifen,resulted in MeSC loss only in hair follicles innervated by DREADD-positive nerve fibres
"NCCc1cc(O)c(O)cc1O [6-OHDA, 6-hydroxy dopamine]",effect on RTX-induced hair greying,C57BL/6J mice; [7],blocked RTX-induced hair greying
same,effect on RTX-induced MeSC loss,[2]; [7],blocked RTX-induced hair greying and MeSC loss
N=C(N)NCCN1CCCCCCC1 [guanethidine],effect on MeSC loss upon RTX injection,"[2]; mouse, in vivo",suppressed hair greying and MeSC loss
